Measured values published in publication PMC4643908 (2015).

How the values were obtained:
[1] = tested on: Tebowned (RNA, riboswitch) GGACGAUUGAGGAUAUUUAGACAUAGAGAAGGCAAUGGAGAGAGAGCUUUUUAAAGAAACAACAACAACAAC; assay: chemical mapping; conditions: mapping pattern changes on FMN
[2] = tested on: V. vulnificus add adenine riboswitch (with expression platform segment) (RNA, riboswitch) GGGAACCGAGUAGGUUCGCUUCAUAUAAUCCUAAUGAUAUGGUUUGGGAGUUUCUACCAAGAGCCUUAAACUCUUGAUUAUGAAGUCUGUCGCUUUAUCCGAAAUUUUAUAAAGAGAAGACUCAUGAAUGGGAUCCGAGUAGGAUCCUGAAAAAAACAACAACAAC; assay: 1M7 SHAPE mutate-and-map chemical mapping; conditions: 50 mM KCl, 25 mM K3PO4, 10 mM MgCl2; pH 6.5; room temperature; 5 mM adenine; protections in aptamer

Row | binding [1] | binding [2] | Compound
1 | yes |  | Cc1cc2nc3c(=O)[nH]c(=O)nc-3n(C[C@H](O)[C@H](O)[C@H](O)COP(=O)(O)O)c2cc1C
2 |  | yes | Nc1ncnc2[nH]cnc12
